Laboratory results from patent US20230073368A1, “THERAPY OF RAS-DEPENDENT CANCERS” (Turun Yliopisto, priority 2020, published 2023).

Test system: PANC-1 cells
Test: Proliferation assay of SHANK3 silenced PANC-1 cells treated with ERK and MEK inhibitors
Format: cell-based, human
Settings: dose-dependent, 7.8 nM-8 μM gradient
Method: Proliferation Assay of SHANK3 Silenced PANC-1 Cells Treated with ERK and MEK Inhibitors
Cells were seeded on a 96-well plate (2000-5000 cells/well) a day before transfection and silenced the next day when cell confluence was approximately 30%. Next day after silencing, medium was changed to full medium containing DMSO (control), Trametinib, Selumetinib (ADZ6244) or selective ERK1/2 inhibitor (SCH772984) in dose-dependent manner (concentration gradient: 0, 7.8 nM, 15.5 nM 31.3 nM 62.5 nM, 125 nM, 250 nM, 500 nM, 1 μM, 2 μM, 4 μM and 8 μM). Proliferation was measured using IncuCyte S3 as described above.

O=C(Nc1ccc2[nH]nc(-c3ccncc3)c2c1)[C@@H]1CCN(CC(=O)N2CCN(c3ccc(-c4ncccn4)cc3)CC2)C1 [SCH772984]
rescue of cell viability lost by SHANK3-silencing: abolished a loss of cell viability induced by SHANK3-silencing
